Values quoted from earlier work, collected in US9682147B2, “Self-preserved oil dispersions comprising boric acid” (SANTEN SAS, priority 2012, dated 2017).
Where two headings read alike, the source gives them in different places.

What was measured:
[1] = test system: corneal cells; conditions: boric acid used in cleaning contact lenses solutions
[2] = test system: corneal and epithelial cells
[3] = solution comprising 1.2% w/w of borate

Compound	Corneal cytotoxicity [1]	Toxicity to corneal and epithelial cells ([2]; 0.5% to 1% boric acid)	Toxicity to corneal and epithelial cells ([2]; concentration of 0.1% boric acid)	Antimicrobial activity [3]	Criteria for antimicrobial effectiveness given by USP [3]
OB(O)O [boric acid]	strong corneal cytotoxicity	toxic	safe		
borate				some antimicrobial activity	not sufficient to meet the criteria
